Experimental data reported in US7371766B2, “Curcumin analogs with anti-tumor and anti-angiogenic properties” (Emory University, priority 1999, dated 2008).

What was measured:
Experiment in all cases: cells
[1] = tested on: CCRF-CEM; conditions: Homo sapiens, 48 h; for GI50: read-out: Median Growth Inhibitory Concentration (GI50)
[2] = tested on: OVCAR-5; conditions: Homo sapiens, OVCAR-5, 48 h; for GI50: read-out: Median Growth Inhibitory Concentration (GI50); for CC50: read-out: Median Lethal Concentration (LC50)
[3] = tested on: SF-295; conditions: Homo sapiens, SF-295, 48 h; for GI50: read-out: Median Growth Inhibitory Concentration (GI50); for CC50: read-out: Median Lethal Concentration (LC50)
[4] = tested on: EKVX; conditions: Homo sapiens, 48 h; for GI50: read-out: Median Growth Inhibitory Concentration (GI50); for CC50: read-out: Median Lethal Concentration (LC50)

| SMILES | GI50 [1] [µM] | GI50 [2] [µM] | CC50 [2] [µM] | GI50 [3] [µM] | CC50 [3] [µM] | GI50 [4] [µM] | CC50 [4] [µM] | CC50 ([1]; read-out: Median Lethal Concentration (LC50)) [µM] |
| --- | --- | --- | --- | --- | --- | --- | --- | --- |
| COc1cc(/C=C/C(=O)CC(=O)/C=C/c2ccc(O)c(OC)c2)ccc1O [Curcumin] | 3.2 | 15.8 | 79.4 | 7.9 | 50.1 | 15.8 | 79.4 |  |
| CC(=O)O.O=C1C(=Cc2ccccc2F)CNCC1=Cc1ccccc1F [EF24, 3,5-Bis-(2-fluorobenzylidene)-piperidin-4-one-acetate] | 0.2 | 1.3 | 9.2 | 85 | 20.6 | 0.9 | 9.4 |  |
| O=C(C=Cc1ccc(F)cc1F)C=Cc1ccc(F)cc1F [EF9, 1,5-Bis(2,4-difluorophenyl)penta-1,4-dien-3-one] | 3.1 | 20 | 63.3 | 14.2 | 58.8 | 11.8 | 49.1 | > 100 |
| O=C1C(=Cc2ccccc2O)CCCC1=Cc1ccccc1O [EF4, 2,6Bis(2-hydroxybenzylidene)cyclohexanone] | 1.4 | 2.6 | 55.9 | 3.4 | 79.5 | 2.3 | 37.2 |  |
